This passage reports EC50 and solubility results from patent publication US20250382344A1, “Soluble GLP1/GIP/NPY2 Receptor Triple Agonists” (Boehringer Ingelheim International GmH, priority 2024, published 2025).

Data set [1] addresses T1, hGLP1R (Homo sapiens, UniProt P43220).
T1 construct: expressed in transfected cells; host or cells: HEK-293 CRE-luciferase reporter cells
As to the kind of experiment: hGLP1R CreLuc assay in 0.5% and 100% plasma (HEK-293 CRE-luciferase reporter cells). The data set is classed as cell-based. Particulars: HEK-293 reporter cells. (In a reporter assay the amount or activity of a reporter protein is the signal.)

Data set [2] deals with T2, hNPY2R (Homo sapiens, UniProt P49146).
T2 construct: expressed in transfected cells; host or cells: HEK-293 CRE-luciferase reporter cells
T2 sequence (P49146 1-381): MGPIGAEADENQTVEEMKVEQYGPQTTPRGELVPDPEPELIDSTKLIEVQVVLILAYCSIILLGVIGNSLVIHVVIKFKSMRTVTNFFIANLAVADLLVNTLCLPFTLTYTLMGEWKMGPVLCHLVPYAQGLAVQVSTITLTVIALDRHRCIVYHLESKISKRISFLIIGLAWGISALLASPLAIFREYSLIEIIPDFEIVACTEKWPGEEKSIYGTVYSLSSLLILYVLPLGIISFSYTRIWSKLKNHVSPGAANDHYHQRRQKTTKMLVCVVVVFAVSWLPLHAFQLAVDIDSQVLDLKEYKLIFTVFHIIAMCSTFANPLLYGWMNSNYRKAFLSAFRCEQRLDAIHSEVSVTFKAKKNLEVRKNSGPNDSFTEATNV
As to the kind of experiment: hNPY2R CreLuc assay in 0.5% and 100% plasma (HEK-293 CRE-luciferase reporter cells). The data set is classed as cell-based. The following applies: HEK-293 reporter cells.

Data set [3] is described as follows: Solubility in 0.1 M phosphate buffer at pH 7. The class given is physicochemical. Particulars: 0.1 M phosphate buffer at pH 7, 10 mg/mL final peptide concentration, shaking 2 hours at room temperature, peptides as TFA-salts; measured sample pH 6.5-7.0.
The target in data set [4] is T3, hGIPR (Homo sapiens, UniProt P48546).
T3 construct: expressed in transfected cells; host or cells: CHO CRE-luciferase reporter cells
T3 sequence (P48546 22-466): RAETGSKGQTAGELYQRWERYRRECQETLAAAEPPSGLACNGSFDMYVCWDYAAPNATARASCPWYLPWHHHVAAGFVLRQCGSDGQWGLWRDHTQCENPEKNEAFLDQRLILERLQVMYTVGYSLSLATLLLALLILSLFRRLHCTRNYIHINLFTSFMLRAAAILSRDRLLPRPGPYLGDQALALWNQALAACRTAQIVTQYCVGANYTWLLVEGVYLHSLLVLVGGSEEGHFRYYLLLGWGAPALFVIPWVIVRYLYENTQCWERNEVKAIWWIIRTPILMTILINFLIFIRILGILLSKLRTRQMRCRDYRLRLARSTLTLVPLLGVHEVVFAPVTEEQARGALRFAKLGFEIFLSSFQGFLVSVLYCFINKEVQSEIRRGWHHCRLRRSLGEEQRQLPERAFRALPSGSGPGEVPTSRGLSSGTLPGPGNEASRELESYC
As to the kind of experiment: hGIPR CreLuc assay in 0.5% and 100% plasma (CHO CRE-luciferase reporter cells). The class given is cell-based.

Where [5] appears, read: 0.5% human plasma, read-out: hGLP1R 0.5% hP.
[6] abbreviates: 100% human plasma, read-out: hNPY2R 100% hP.
[7] abbreviates: 100% human plasma, read-out: hGLP1R 100% hP.
The mark [8] stands for this setting: 0.5% human plasma, read-out: hGIPR 0.5% hP.
Setting [9] is: 100% human plasma, read-out: hGIPR 100% hP.

Like-named read-outs stand apart in the source and are kept apart here. *1 amine or outer side, *2 acyl side, *3 side chain or, on linkers, in order; H or OH if unused. Where a SMILES comes first, the peptide text is derived from it. Side-chain parts run from the residue outwards. [ ]: non-standard residue; d: D form. The star is where a group is joined. Argψ(CH2NH)TyrNH2 = N=C(N)NCCC[C@@H](CN[C@@H](Cc1ccc(O)cc1)C(N)=O)N*; C18 diacid = O=C(O)CCCCCCCCCCCCCCCCC(=O)*; γGlu = O=C(O)[C@H](CCC(=O)[*:2])N[*:1]; Aib = CC(C)(N)C(=O)O

T1 sequence (P43220 24-463): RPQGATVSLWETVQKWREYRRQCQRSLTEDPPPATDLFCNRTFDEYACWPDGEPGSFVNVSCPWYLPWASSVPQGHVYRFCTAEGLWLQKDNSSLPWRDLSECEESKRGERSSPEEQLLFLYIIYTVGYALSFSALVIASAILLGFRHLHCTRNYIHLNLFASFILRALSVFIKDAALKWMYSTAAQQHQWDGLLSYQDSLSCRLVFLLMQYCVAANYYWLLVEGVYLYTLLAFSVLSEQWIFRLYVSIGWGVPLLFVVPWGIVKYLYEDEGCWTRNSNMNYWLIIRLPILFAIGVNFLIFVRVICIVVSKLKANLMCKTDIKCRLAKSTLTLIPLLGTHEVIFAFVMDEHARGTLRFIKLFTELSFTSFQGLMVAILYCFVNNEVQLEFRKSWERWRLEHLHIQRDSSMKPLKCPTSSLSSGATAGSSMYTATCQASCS

For orientation: solubility means the dissolved amount per volume that the medium holds. Consider `CC[C@H](C)[C@H](NC(=O)[C@H](CC(C)C)NC(=O)[C@H](Cc1c[nH]cn1)NC(=O)[C@H](CCCNC(=N)N)NC(=O)[C@H](CC(C)C)NC(=O)[C@H](Cc1ccccc1)NC(=O)[C@H](C)NC(=O)C(C)(C)NC(=O)[C@H](CCC(N)=O)NC(=O)[C@H](C)NC(=O)[C@H](CCC(N)=O)NC(=O)[C@H](CCCCN)NC(=O)[C@H](CCC(=O)O)NC(=O)[C@H](CC(C)C)NC(=O)C(C)(C)NC(=O)[C@@H](NC(=O)[C@H](CO)NC(=O)[C@H](Cc1ccc(O)cc1)NC(=O)[C@H](CC(=O)O)NC(=O)[C@H](CO)NC(=O)[C@@H](NC(=O)[C@H](Cc1ccccc1)NC(=O)[C@@H](NC(=O)CNC(=O)[C@H](CCC(=O)O)NC(=O)C(C)(C)NC(=O)[C@@H](N)Cc1ccc(O)cc1)[C@@H](C)O)[C@@H](C)O)[C@@H](C)CC)C(=O)N[C@@H](CC(N)=O)C(=O)N[C@@H](CCCCNC(=O)[C@@H](N)CCCCNC(=O)CC[C@H](NC(=O)CC[C@H](NC(=O)CC[C@H](NC(=O)CC[C@H](NC(=O)CC[C@H](NC(=O)CC[C@H](NC(=O)CCCCCCCCCCCCCCCCC(=O)O)C(=O)O)C(=O)O)C(=O)O)C(=O)O)C(=O)O)C(=O)O)C(=O)NC(C)(C)C(=O)N[C@H](C(=O)N[C@@H](CCCNC(=N)N)C(=O)N[C@@H](CCC(N)=O)C(=O)N[C@@H](CCCNC(=N)N)C(=O)N[C@@H](Cc1ccc(O)cc1)C(N)=O)[C@@H](C)O` [Compound 37, Y-Aib-E-G-T-F-T-S-D-Y-S-I-Aib-L-E-K-Q-A-Q-Aib-A-F-L-R-H-L-I-N-K(1,3)-Aib-T-R-Q-R-Y-NH2.C18DA-gGlu-gGlu-gGlu-gGlu-gGlu-gGlu-eLys(1,2)], for which the EC50 in data set [1] (setting [5]) is 5.8 nM; in data set [2] (setting [6]) it was 41.3 nM. For the same compound, in data set [3], the solubility at 2 h was 9000 µg/mL.
As for `CC[C@H](C)[C@H](NC(=O)[C@H](Cc1ccccc1)NC(=O)[C@H](C)NC(=O)C(C)(C)NC(=O)[C@H](CCC(N)=O)NC(=O)[C@H](C)NC(=O)[C@H](CCC(N)=O)NC(=O)[C@H](CCCCN)NC(=O)[C@H](CC(=O)O)NC(=O)[C@H](CC(C)C)NC(=O)C(C)(C)NC(=O)[C@@H](NC(=O)[C@H](CO)NC(=O)[C@H](Cc1ccc(O)cc1)NC(=O)[C@H](CC(=O)O)NC(=O)[C@H](CO)NC(=O)[C@@H](NC(=O)[C@H](Cc1ccccc1)NC(=O)[C@@H](NC(=O)CNC(=O)[C@H](CCC(=O)O)NC(=O)C(C)(C)NC(=O)[C@@H](N)Cc1ccc(O)cc1)[C@@H](C)O)[C@@H](C)O)[C@@H](C)CC)C(=O)N[C@@H](CCCNC(=N)N)C(=O)N[C@@H](Cc1c[nH]cn1)C(=O)N[C@@H](CC(C)C)C(=O)N[C@H](C(=O)N[C@@H](CC(N)=O)C(=O)N[C@@H](CCCCNC(=O)[C@@H](N)CCCCNC(=O)CC[C@H](NC(=O)CC[C@H](NC(=O)CC[C@H](NC(=O)CC[C@H](NC(=O)CC[C@H](NC(=O)CC[C@H](NC(=O)CCCCCCCCCCCCCCCCCCC(=O)O)C(=O)O)C(=O)O)C(=O)O)C(=O)O)C(=O)O)C(=O)O)C(=O)NC(C)(C)C(=O)N[C@H](C(=O)N[C@@H](CCCNC(=N)N)C(=O)N[C@@H](CCC(N)=O)C(=O)N[C@@H](CCCNC(=N)N)C(=O)N[C@@H](Cc1ccc(O)cc1)C(N)=O)[C@@H](C)O)[C@@H](C)CC` [Compound 81, Y-Aib-E-G-T-F-T-S-D-Y-S-I-Aib-L-D-K-Q-A-Q-Aib-A-F-I-R-H-L-I-N-K(1,3)-Aib-T-R-Q-R-Y-NH2.C20DA-gGlu-gGlu-gGlu-gGlu-gGlu-gGlu-eLys(1,2)], the EC50 was determined as 0.6 nM in data set [1] (setting [5]); 3.8 nM in data set [1] (setting [7]); 0.5 nM in data set [4] (setting [8]); 7.2 nM in data set [2] (0.5% human plasma, read-out: hNPY2R 0.5% hP).
On to `CC[C@H](C)[C@H](NC(=O)[C@H](CC(C)C)NC(=O)[C@H](Cc1c[nH]cn1)NC(=O)[C@H](CCCNC(=N)N)NC(=O)[C@@H](NC(=O)[C@H](Cc1ccccc1)NC(=O)[C@H](C)NC(=O)C(C)(C)NC(=O)[C@H](CCC(N)=O)NC(=O)[C@H](C)NC(=O)[C@H](CCC(N)=O)NC(=O)[C@H](CCCCN)NC(=O)[C@H](CCC(=O)O)NC(=O)[C@H](CC(C)C)NC(=O)C(C)(C)NC(=O)[C@@H](NC(=O)[C@H](CO)NC(=O)[C@H](Cc1ccc(O)cc1)NC(=O)[C@H](CC(=O)O)NC(=O)[C@H](CO)NC(=O)[C@@H](NC(=O)[C@H](Cc1ccccc1)NC(=O)[C@@H](NC(=O)CNC(=O)[C@H](CCC(=O)O)NC(=O)C(C)(C)NC(=O)[C@@H](N)Cc1ccc(O)cc1)[C@@H](C)O)[C@@H](C)O)[C@@H](C)CC)C(C)C)C(=O)N[C@@H](CC(N)=O)C(=O)N[C@@H](CCCCNC(=O)[C@@H](N)CCCCNC(=O)CC[C@H](NC(=O)CC[C@H](NC(=O)CC[C@H](NC(=O)CC[C@H](NC(=O)CC[C@H](NC(=O)CC[C@H](NC(=O)CCCCCCCCCCCCCCCCC(=O)O)C(=O)O)C(=O)O)C(=O)O)C(=O)O)C(=O)O)C(=O)O)C(=O)NC(C)(C)C(=O)N[C@H](C(=O)N[C@@H](CCCNC(=N)N)C(=O)N[C@@H](CCC(N)=O)C(=O)N[C@@H](CCCNC(=N)N)C(=O)N[C@@H](Cc1ccc(F)cc1)C(N)=O)[C@@H](C)O` [Compound 86, Y-Aib-E-G-T-F-T-S-D-Y-S-I-Aib-L-E-K-Q-A-Q-Aib-A-F-V-R-H-L-I-N-K(1,3)-Aib-T-R-Q-R-Phe4F-NH2.C18DA-gGlu-gGlu-gGlu-gGlu-gGlu-gGlu-eLys(1,2)], for which the EC50 in data set [1] (setting [5]) is 0.8 nM; in data set [4] (setting [8]) it was 0.3 nM; in data set [4] (setting [9]), 5.9 nM; in data set [2] (setting [6]), 162 nM.
On to `CC[C@H](C)[C@H](NC(=O)[C@H](CC(C)C)NC(=O)[C@H](Cc1c[nH]cn1)NC(=O)[C@H](CCCNC(=N)N)NC(=O)[C@@H](NC(=O)[C@H](Cc1ccccc1)NC(=O)[C@H](C)NC(=O)C(C)(C)NC(=O)[C@H](CCC(N)=O)NC(=O)[C@H](C)NC(=O)[C@H](CCC(N)=O)NC(=O)[C@H](CCCCN)NC(=O)[C@H](CCC(=O)O)NC(=O)[C@H](CC(C)C)NC(=O)C(C)(C)NC(=O)[C@@H](NC(=O)[C@H](CO)NC(=O)[C@H](Cc1ccc(O)cc1)NC(=O)[C@H](CC(=O)O)NC(=O)[C@H](CO)NC(=O)[C@@H](NC(=O)[C@H](Cc1ccccc1)NC(=O)[C@@H](NC(=O)CNC(=O)[C@H](CCC(=O)O)NC(=O)C(C)(C)NC(=O)[C@@H](N)Cc1ccc(O)cc1)[C@@H](C)O)[C@@H](C)O)[C@@H](C)CC)C(C)C)C(=O)N[C@@H](CC(N)=O)C(=O)N[C@@H](CCCCNC(=O)CC[C@H](NC(=O)CC[C@H](NC(=O)CC[C@H](NC(=O)CC[C@H](NC(=O)CC[C@H](NC(=O)CCCCCCCCCCCCCCCCC(=O)O)C(=O)O)C(=O)O)C(=O)O)C(=O)O)C(=O)O)C(=O)NC(C)(C)C(=O)N[C@H](C(=O)N[C@@H](CCCNC(=N)N)C(=O)N[C@@H](CCC(N)=O)C(=O)N[C@@H](CCCNC(=N)N)CN[C@@H](Cc1ccc(O)cc1)C(N)=O)[C@@H](C)O` [Compound 96, Y-Aib-E-G-T-F-T-S-D-Y-S-I-Aib-L-E-K-Q-A-Q-Aib-A-F-V-R-H-L-I-N-K(1,3)-Aib-T-R-Q-dOR-Y-NH2.C18DA-gGlu-gGlu-gGlu-gGlu-gGlu(1,2)] (H-Y[Aib]EGTFTSDYSI[Aib]LEKQAQ[Aib]AFVRHLINK([γGlu-γGlu-γGlu-γGlu-γGlu-C18 diacid])[Aib]TRQ-{Argψ(CH2NH)TyrNH2}), for which the EC50 in data set [1] (setting [5]) was found to be 0.9 nM; in data set [1] (setting [7]) it was 1.7 nM; in data set [4] (setting [8]) it was 0.3 nM; in data set [4] (setting [9]) it was 1.7 nM; in data set [2] (setting [6]), 125 nM.
